The assay deals with BDF1 mice, colon carcinoma 38 sc, T/C %. The assay can be described thus: NCI In Vivo Anticancer Drug Screen. Data for tumor model Colon Carcinoma 38 (subcutaneous) in B6D2F1 (BDF1) mice. The following applies: endpoint: median tumor weight (est.), higher = larger tumour. In short, it runs like this: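 Compound antitumor activity was assessed in mice carrying transplantable tumors. Survival or tumor size was recorded, and each value is the treated-group measurement divided by that of the vehicle-treated control group.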

[1] abbreviates: dose: 32.0 mg/kg/injection, schedule: Q07DX002 (ip), vehicle: saline.
Setting [2] is: dose: 6.25 mg/kg/injection, schedule: Q07DX002 (ip), vehicle: water.
The mark [3] stands for this setting: dose: 25.0 mg/kg/injection, schedule: Q07DX002 (ip), vehicle: water.
Setting [4] is: dose: 100.0 mg/kg/injection, schedule: Q07DX002 (ip), vehicle: water.
Where [5] appears, read: dose: 50.0 mg/kg/injection, schedule: Q07DX002 (ip), vehicle: Klucel (hydroxypropylcellulose) (HPC).
[6] abbreviates: dose: 100.0 mg/kg/injection, schedule: Q07DX002 (ip), vehicle: Klucel (hydroxypropylcellulose) (HPC).
The mark [7] stands for this setting: dose: 400.0 mg/kg/injection, schedule: Q07DX002 (ip), vehicle: Klucel (hydroxypropylcellulose) (HPC).
Setting [8] is: dose: 12.5 mg/kg/injection, schedule: Q07DX002 (ip), vehicle: saline with Tween-80.
Where [9] appears, read: dose: 50.0 mg/kg/injection, schedule: Q07DX002 (ip), vehicle: saline with Tween-80.
Setting [10] is: dose: 200.0 mg/kg/injection, schedule: Q07DX002 (ip), vehicle: saline with Tween-80.
[11] abbreviates: dose: 400.0 mg/kg/injection, schedule: Q07DX002 (ip), vehicle: saline with Tween-80.
The mark [12] stands for this setting: dose: 800.0 mg/kg/injection, schedule: Q07DX002 (ip), vehicle: saline with Tween-80.
The mark [13] stands for this setting: dose: 100.0 mg/kg/injection, schedule: Q07DX002 (ip), vehicle: saline with Tween-80.
[14] abbreviates: dose: 200.0 mg/kg/injection, schedule: Q07DX002 (ip), vehicle: Klucel (hydroxypropylcellulose) (HPC).
Setting [15] is: dose: 12.5 mg/kg/injection, schedule: Q07DX002 (ip), vehicle: Klucel (hydroxypropylcellulose) (HPC).
The mark [16] stands for this setting: dose: 25.0 mg/kg/injection, schedule: Q07DX002 (ip), vehicle: saline with Tween-80.
The mark [17] stands for this setting: dose: 25.0 mg/kg/injection, schedule: Q07DX002 (ip), vehicle: saline.
The mark [18] stands for this setting: dose: 100.0 mg/kg/injection, schedule: Q07DX002 (ip), vehicle: saline.

Values joined by “and” are separate entries in the source; they are usually repeats but may differ in a detail not shown here. Identical values can stand only once. Inconclusive results are not listed.

Consider `C=C1C(=O)C23C(O)CC4C5(C)CCCC4(C(O)OC5)C2C(OC(C)=O)CC1C3O` (stereo not drawn), for which the T/C is 72 % of control (dose: 8.0 mg/kg/injection, schedule: Q07DX002 (ip), vehicle: Klucel (hydroxypropylcellulose) (HPC)); 124 % of control (dose: 8.0 mg/kg/injection, schedule: Q07DX002 (ip), vehicle: saline); 72 % of control (dose: 16.0 mg/kg/injection, schedule: Q07DX002 (ip), vehicle: Klucel (hydroxypropylcellulose) (HPC)); 106 % of control (dose: 16.0 mg/kg/injection, schedule: Q07DX002 (ip), vehicle: saline); 106 % of control (dose: 32.0 mg/kg/injection, schedule: Q07DX002 (ip), vehicle: Klucel (hydroxypropylcellulose) (HPC)); 117 % of control under setting [1]. Moreover, the T/C is, setting by setting: (dose: 64.0 mg/kg/injection, schedule: Q07DX002 (ip), vehicle: Klucel (hydroxypropylcellulose) (HPC)) 112 % of control; (dose: 64.0 mg/kg/injection, schedule: Q07DX002 (ip), vehicle: saline) 101 % of control; (dose: 128.0 mg/kg/injection, schedule: Q07DX002 (ip), vehicle: Klucel (hydroxypropylcellulose) (HPC)) 79 % of control.
For `CN1N=C(N)c2cn(C3OC(COP(=O)(O)O)C(O)C3O)c3ncnc1c23` (stereo not drawn), the T/C is 84 % of control under setting [2]; 68 % of control and 91 % of control under setting [3]; 73 % of control under setting [4].
As for `O=S(=O)(SC(S(=O)(=O)c1ccccc1)S(=O)(=O)c1ccccc1)c1ccccc1`, the T/C was 174 % of control (dose: 25.0 mg/kg/injection, schedule: Q07DX002 (ip), vehicle: Klucel (hydroxypropylcellulose) (HPC)); 199 % of control under setting [5]; 113 % of control under setting [6]; 115 % of control under setting [7].
As to `COC(=O)[C@@]12OC[C@]34[C@H]([C@@H](O)[C@@H]1O)[C@@]1(C)CC(=O)C(O)=C(C)[C@@H]1C[C@H]3OC(=O)[C@H](OC(=O)/C=C(\C)C(C)C)[C@@H]24`, the T/C by setting is: (dose: 0.25 mg/kg/injection, schedule: Q07DX003 (ip), vehicle: other) 72 % of control; (dose: 0.5 mg/kg/injection, schedule: Q07DX003 (ip), vehicle: other) 98 % of control.
Consider `N=C(N)c1ccc(/C=C/c2ccc(C(=N)N)cc2O)cc1`, for which the T/C under setting [2] is 86 % of control; the T/C (dose: 12.5 mg/kg/injection, schedule: Q07DX002 (ip), vehicle: water) is 95 % of control; the T/C under setting [3] is 112 % of control; the T/C under setting [4] was 108 % of control.
Regarding `CCOC(=O)[C@]1(Br)CC[C@@]1(Br)C(=O)OCC`, the T/C is 76 % of control under setting [8]; 71 % of control and 75 % of control under setting [9]; 78 % of control and 95 % of control and 96 % of control under setting [10]; 79 % of control and 80 % of control and 97 % of control under setting [11]; 113 % of control under setting [12].
For the compound `COC(=O)C1(F)C(=O)NC(=O)NC1OC` (stereo not drawn), the T/C by setting is: under setting [6], 90 % of control; under setting [13], 83 % of control; under setting [14], 72 % of control; under setting [10], 83 % of control; under setting [11], 55 % of control; under setting [12], 85 % of control.
Consider `CNC(=O)OCc1c(COC(=O)NC)c(C)n(-c2ccc(OC)cc2)c1C`, for which the T/C is 82 % of control (dose: 6.25 mg/kg/injection, schedule: Q07DX002 (ip), vehicle: Klucel (hydroxypropylcellulose) (HPC)); 69 % of control under setting [15]; 111 % of control under setting [5]; 68 % of control and 93 % of control under setting [6]; 49 % of control under setting [14].
`Cc1c(N)nc(C(CC(N)=O)NCC(N)C(N)=O)nc1C(=O)NC(C(=O)NC(C)C(O)C(C)C(=O)NC(C(=O)NCCc1nc(-c2nc(C(=O)NCCCNC(C)c3ccccc3)cs2)cs1)C(C)O)C(OC1OC(CO)C(O)C(O)C1OC1OC(CO)C(O)C(OC(N)=O)C1O)c1cnc[nH]1` (stereo not drawn): the T/C was 75 % of control (dose: 0.5 mg/kg/injection, schedule: Q07DX003 (ip), vehicle: saline); 66 % of control (dose: 1.0 mg/kg/injection, schedule: Q07DX002 (ip), vehicle: saline); 90 % of control (dose: 1.0 mg/kg/injection, schedule: Q07DX003 (ip), vehicle: saline); 75 % of control (dose: 2.0 mg/kg/injection, schedule: Q07DX002 (ip), vehicle: saline); 102 % of control (dose: 2.0 mg/kg/injection, schedule: Q07DX003 (ip), vehicle: saline); 62 % of control (dose: 4.0 mg/kg/injection, schedule: Q07DX003 (ip), vehicle: saline). Moreover, the T/C is, setting by setting: (dose: 8.0 mg/kg/injection, schedule: Q07DX003 (ip), vehicle: saline) 83 % of control; (dose: 16.0 mg/kg/injection, schedule: Q07DX003 (ip), vehicle: saline) 92 % of control; under setting [1], 29 % of control.
For the compound `Cn1ccc(=Nc2ccc(NC(=O)c3ccc(N=c4ccn(C)c5ccc([N+](=O)[O-])cc45)cc3[N+](=O)[O-])cc2)cc1`, the T/C under setting [16] is 99 % of control; the T/C under setting [9] was 60 % of control; the T/C under setting [13] was 105 % of control; the T/C under setting [10] was 90 % of control; the T/C under setting [11] was 29 % of control; the T/C under setting [12] was 67 % of control.
For the compound `OC1CCCC2CCC[N-]C12.OC1CCCC2CCC[N-]C12.[Mn+2]` (stereo not drawn), the T/C under setting [15] was 76 % of control; the T/C under setting [5] was 91 % of control; the T/C under setting [6] is 63 % of control and 84 % of control; the T/C under setting [14] is 86 % of control and 98 % of control; the T/C under setting [7] is 69 % of control.
On to `CNC(=O)ON(C(C)=O)C(=O)NC`, for which the T/C is, setting by setting: under setting [17], 87 % of control and 106 % of control; under setting [18], 103 % of control.
`Cc1ccc(S(=O)(=O)NC(=S)S)cc1`: the T/C by setting is: under setting [8], 108 % of control; under setting [16], 54 % of control; under setting [9], 116 % of control; under setting [13], 100 % of control; under setting [10], 60 % of control.
For the compound `Cc1cc2c(c3oc(C4(C)OC4C4OC4C)cc(=O)c13)C(=O)c1c(O)c(C3CC(C)(N(C)C)C(O)C(C)O3)cc(C3CC(N(C)C)C(O)C(C)O3)c1C2=O` (stereo not drawn), the T/C by setting is: (dose: 3.75 micrograms/kg/injection, schedule: Q07DX002 (ip), vehicle: Klucel (hydroxypropylcellulose) (HPC)) 62 % of control; (dose: 7.5 micrograms/kg/injection, schedule: Q07DX002 (ip), vehicle: Klucel (hydroxypropylcellulose) (HPC)) 90 % of control; (dose: 15.0 micrograms/kg/injection, schedule: Q07DX002 (ip), vehicle: Klucel (hydroxypropylcellulose) (HPC)) 99 % of control; (dose: 30.0 micrograms/kg/injection, schedule: Q07DX002 (ip), vehicle: Klucel (hydroxypropylcellulose) (HPC)) 57 % of control.
As to `CN(C)CC(Cl)CCl` (stereo not drawn), the T/C was 118 % of control (dose: 12.5 mg/kg/injection, schedule: Q07DX002 (ip), vehicle: saline); 105 % of control under setting [17]; 115 % of control under setting [18]; 118 % of control (dose: 200.0 mg/kg/injection, schedule: Q07DX002 (ip), vehicle: saline); 88 % of control (dose: 400.0 mg/kg/injection, schedule: Q07DX002 (ip), vehicle: saline).
Regarding `[N-]=[N+]=CC(=O)CCC(=O)C=[N+]=[N-]`, the T/C is 39 % of control (dose: 50.0 mg/kg/injection, schedule: Q07DX003 (ip), vehicle: Klucel (hydroxypropylcellulose) (HPC)); 45 % of control (dose: 100.0 mg/kg/injection, schedule: Q07DX003 (ip), vehicle: Klucel (hydroxypropylcellulose) (HPC)); 50 % of control (dose: 200.0 mg/kg/injection, schedule: Q07DX003 (ip), vehicle: Klucel (hydroxypropylcellulose) (HPC)); 19 % of control (dose: 400.0 mg/kg/injection, schedule: Q07DX003 (ip), vehicle: Klucel (hydroxypropylcellulose) (HPC)).

The values are drawn from PubChem BioAssay AID212 (DTP/NCI, 2004).
